In PMC12080319 (The Plant Journal, 2025):
Numbering of substitutions follows the chain as printed.

Columns and labels:
Assay in all cases: microscale thermophoresis
Format in all cases: binding
OsNAT9 (OsNAT9-GFP) [1] = biological target: T1, OsNAT9 (OsNAT9-GFP) (Oryza sativa, UniProt Q10ET9)
T1 sequence (Q10ET9 1-527): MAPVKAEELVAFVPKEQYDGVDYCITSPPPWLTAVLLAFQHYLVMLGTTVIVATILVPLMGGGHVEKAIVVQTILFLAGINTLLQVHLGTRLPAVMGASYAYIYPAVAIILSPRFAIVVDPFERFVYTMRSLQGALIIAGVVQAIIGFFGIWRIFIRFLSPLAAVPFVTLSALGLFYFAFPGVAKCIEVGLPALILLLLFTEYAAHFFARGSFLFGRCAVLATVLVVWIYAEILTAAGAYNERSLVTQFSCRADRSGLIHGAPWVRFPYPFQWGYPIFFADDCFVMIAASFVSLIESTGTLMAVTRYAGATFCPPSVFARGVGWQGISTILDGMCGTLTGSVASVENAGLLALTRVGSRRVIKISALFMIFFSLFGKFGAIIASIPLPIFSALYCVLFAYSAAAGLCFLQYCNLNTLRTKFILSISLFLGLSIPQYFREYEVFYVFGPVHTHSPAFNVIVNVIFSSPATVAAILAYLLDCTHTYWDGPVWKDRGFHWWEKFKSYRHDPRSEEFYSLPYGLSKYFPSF

OsNAT9 (OsNAT9-GFP) [2] = biological target: T2, OsNAT9 (OsNAT9-GFP) (Oryza sativa, UniProt Q10ET9, G349A)
T2 sequence (Q10ET9 1-527 G349A): T1 sequence (Q10ET9 1-527) with G349A

OsNAT9 (OsNAT9-GFP) [3] = biological target: T3, OsNAT9 (OsNAT9-GFP) (Oryza sativa, UniProt Q10ET9, S344A)
T3 sequence (Q10ET9 1-527 S344A): T1 sequence (Q10ET9 1-527) with S344A

OsNAT9 (OsNAT9-GFP) [4] = biological target: T4, OsNAT9 (OsNAT9-GFP) (Oryza sativa, UniProt Q10ET9, E346A)
T4 sequence (Q10ET9 1-527 E346A): T1 sequence (Q10ET9 1-527) with E346A

Row | SMILES | Kd (OsNAT9 (OsNAT9-GFP) [1]) | Kd (OsNAT9 (OsNAT9-GFP) [2]) | Kd (OsNAT9 (OsNAT9-GFP) [3]) | Kd (OsNAT9 (OsNAT9-GFP) [4])
1 | O=C1O[C@H]([C@@H](O)CO)C(O)=C1O [AsA, ascorbic acid] | 0.28 ± 0.23 nM | 0.55 ± 0.53 nM | 101 ± 27.6 nM | 80.7 ± 6.06 nM
2 | O=c1[nH]c(=O)c2[nH]cnc2[nH]1 [xanthine] | 0.39 ± 0.11 nM |  |  | 
